Laboratory results taken from patent US5310667A (priority 1989, dated 1994).
≈ marks a conversion by molar mass, not a printed value. Entries after “also recorded” stand apart in the source; their conditions may differ.

Assays:
[1] = tested on: control petunia plants (wildtype or control vector pMON505); test: Plant response to glyphosate spraying; assay type: in vivo; settings: 0.8 #/acre acid equivalent, isopropylamine salt, sprayed
Method: (§1) Four individual representative transgenic seedlings were selected, grown and tested in the testing procedure described below, along with four individual non-transformed (wild-type) petunia seedlings.
(§2) The plants were grown in a growth medium in a growth chamber at 26° C. with 12 hours of light per day. The plants were fertilized weekly with a soluble fertilizer and watered as needed. The plants were sprayed at a uniform and reproducible delivery rate of herbicide by use of an automated track sprayer. The glyphosate solution used was measured as pounds of glyphosate acid equivalents per acre, mixed as the glyphosate isopropylamine salt, with an ionic surfactant.
(§3) Four individual wild-type (non-transformed) petunia plants were selected for use as control plants. Four individual transformed plants containing the pMON546 vector were selected by kanamycin resistance as described by Horsch, et al. (1985).
(§4) The control plants and the transformed plants were sprayed with the isopropylamine salt of glyphosate at the application level listed in Table 2 below; the experimental results obtained are also summarized in Table 2.

[2] = tested on: transformed petunia plants containing pMON546 (Chimeric EPSP); test: Plant response to glyphosate spraying; assay type: in vivo; settings: 0.8 #/acre acid equivalent, isopropylamine salt, sprayed
Method: as §1, §2, §3, §4

[3] = tested on: E. coli JM101 culture #215 (pMON8186); test: Growth curve analysis in liquid MOPS medium with glyphosate; assay type: cell-based; settings: MOPS medium containing 10 mM glyphosate, 37° C.
Method: This growth curve analysis functioned as a tertiary screen and was performed in the following way:
Glyphosate resistant colonies were picked off the selection plates and inoculated individually into precultures containing 1 ml of MOPS medium and 50 μg/ml carbenicillin. The precultures were then grown to saturation by shaking the cultures overnight at 37° C. The next morning the density of each culture was determined by withdrawing a 100 μl aliquot from each and diluting it 10 fold with the addition of 900 μl MOPS medium, then reading the optical density at a wavelength of 660 nm in a spectrophotometer. The saturated precultures were then diluted to 1% by adding 50 μl from each saturated preculture to 5 ml of MOPS media containing 0, 5 or 10 mM glyphosate. The diluted precultures were grown in glass culture tubes fitted with stainless steel closures, rotating on a wheel at 37° C. The glass culture tubes were designed for direct reading in a Klett-Summerson photoelectric colorimeter, which was used to monitor the growth of the bacterial cultures at approximately 3 hour intervals.

E. coli strain JM101 = test: Growth on minimal medium plates with increasing glyphosate; assay type: cell-based; settings: Escherichia coli, read-out: glyphosate concentration that inhibits endogenous EPSP synthase activity and growth on minimal media
Source text: A multi-step screening procedure was used to identify glyphosate resistant variants of petunia EPSPS.

[4] = target: variant maize preenzyme product of pMON8617 (glycine to alanine and glycine to aspartate) (Zea mays, UniProt A0A1D6NVZ6, G163A/G206D); test: EPSP synthase activity of in vitro translation product; assay type: biochemical
variant maize preenzyme product of pMON8617 (glycine to alanine and glycine to aspartate), sequence (A0A1D6NVZ6 entry or part of it G163A/G206D): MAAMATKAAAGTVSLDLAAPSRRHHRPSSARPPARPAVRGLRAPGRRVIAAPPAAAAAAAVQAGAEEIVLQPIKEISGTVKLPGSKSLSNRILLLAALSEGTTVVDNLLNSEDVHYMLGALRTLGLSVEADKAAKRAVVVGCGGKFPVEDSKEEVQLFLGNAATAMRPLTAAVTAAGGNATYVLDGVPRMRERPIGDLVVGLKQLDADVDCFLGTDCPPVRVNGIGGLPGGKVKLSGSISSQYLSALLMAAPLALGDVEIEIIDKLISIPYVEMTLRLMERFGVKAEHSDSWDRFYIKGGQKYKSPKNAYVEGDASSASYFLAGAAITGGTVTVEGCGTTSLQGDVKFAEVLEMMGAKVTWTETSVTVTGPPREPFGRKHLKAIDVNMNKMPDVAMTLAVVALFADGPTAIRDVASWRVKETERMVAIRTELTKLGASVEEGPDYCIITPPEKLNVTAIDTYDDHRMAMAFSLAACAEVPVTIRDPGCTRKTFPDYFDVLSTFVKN
Method: (§5) To an assay mix (40 μl) containing shikimate-3-phosphate (2 mM), ^14 C-phosphoenolpyruvate (1 mM, 1.2 mCi/mmol), ammonium molybdate (0.1 mM), potassium fluoride (5 mM) in 50 mM HEPES-KOH, pH 7, was added the extract and incubated at 25° C. for 2 mins. The reaction was quenched by the addition of 50 μl of 50 μl of 90% ethanol/0.1M acetic acid, pH 4.5. 70 μl of the reaction mixture was loaded on a SynchroPak AX100 HPLC column (0.4×25 cm) and the column was eluted with 0.5M potassium phosphate, pH 5.5 at 1 ml/min. The radioactivity of the eluent was monitored using a Radiomatic Flo-One Beta Instrument. (Radiomatics, Fla.). The EPSP synthase activity was determined by measurement of the conversion of ^14 C-PEP to ^14 C-EPSP synthase, both of which are resolved under the above conditions of chromatography. The protein content of the extract was determined by the method of Bradford (Biorad Labs, Calif.). The specific activity of the extract is expressed as nanomoles of EPSP synthase formed/min/mg protein.
(§6) The linearized plasmid DNA was transcribed in vitro with T7 polymerase essentially as described by Krieg et al. (1984). The standard reaction buffer contained 40 mM Tris-HCl (pH 7.9), 6 mM MgCl2, 10 mM dithiothreitol, 2 mM spermidine, 80 U RNAsin ribuonuclease inhibitor, 0.5 mM each of ATP, GTP, CTP and UTP, in a final reaction volume of 100 μl. The final RNA pellet was resuspended in 20 μl of sterile water and stored at -80° C. A standard translation reaction contained 100 μl of nuclease-treated rabbit reticulocyte lysate, 5.7 μl of a 19-amino acid mixture (minus methionine) at 1 mM each, 5.7 μl of RNA (total RNA transcripts derived from 0.63 μg of plasmid DNA), 16 μl RNAsin (20U/μl) ribonuclease inhibitor, and 58.3 μl of [^35 S] methionine (14-15 mCi/ml). The in vitro translation products were stored frozen at -80° C.
(§7) The products of the in vitro translation were then assayed for EPSP synthase activity as described herein.

[5] = target: wild type maize pre-EPSP synthase (pMON9951 product) (Zea mays, UniProt A0A1D6NVZ6); test: as above; assay type: biochemical; settings: 1.0 mM glyphosate
wild type maize pre-EPSP synthase (pMON9951 product), sequence (A0A1D6NVZ6 1-506): as the sequence (A0A1D6NVZ6 entry or part of it G163A/G206D) above, with A163G, D206G counted along it
Method: as §5, §6, §7

[6] = tested on: tobacco plants transformed with wild-type EPSP synthase gene; test: Relative effect of glyphosate spraying on transformed tobacco; assay type: in vivo, Nicotiana tobacam CV H425; settings: WT, 0 total kill, 10 no effect, best transformant
Source text: A culture of A. tumefaciens cells containing pMON567/pGV3111-SE was contacted with leaf disks taken from tobacco plants (Nicotiana tobacam CV H425) as described by Horsch (1985). The Agrobacterium cells inserted the variant EPSP synthase gene into the chromosomes of the plant cells. Plant cells resistant to kanamycin were selected and regenerated into differentiated plants by the procedure of Horsch (1985).
Progeny of these plants were propagated and grown to a rosette diameter of about 10 cm corresponding to a plant age of about four weeks. The plants were sprayed with glyphosate at levels corresponding to 0.4, 2.0 and 3.6 pounds acid equiv./acre. The effect of glyphosate on the transformed plants were scored at 7, 14 and 28 days. The effect was translated to a numerical scale of 0-10 in which 0 represents total kill and 10 is the normal, unsprayed plant. […] The values represent the best transformant for both wild-type EPSP synthase and glyphosate-tolerant EPSP synthase genes.

[7] = target: wild type petunia EPSP synthase (Petunia hybrida, UniProt P11043); test: EPSP synthase kinetic constants (appKi glyphosate, appKm PEP); assay type: biochemical
wild type petunia EPSP synthase, sequence (P11043 73-516): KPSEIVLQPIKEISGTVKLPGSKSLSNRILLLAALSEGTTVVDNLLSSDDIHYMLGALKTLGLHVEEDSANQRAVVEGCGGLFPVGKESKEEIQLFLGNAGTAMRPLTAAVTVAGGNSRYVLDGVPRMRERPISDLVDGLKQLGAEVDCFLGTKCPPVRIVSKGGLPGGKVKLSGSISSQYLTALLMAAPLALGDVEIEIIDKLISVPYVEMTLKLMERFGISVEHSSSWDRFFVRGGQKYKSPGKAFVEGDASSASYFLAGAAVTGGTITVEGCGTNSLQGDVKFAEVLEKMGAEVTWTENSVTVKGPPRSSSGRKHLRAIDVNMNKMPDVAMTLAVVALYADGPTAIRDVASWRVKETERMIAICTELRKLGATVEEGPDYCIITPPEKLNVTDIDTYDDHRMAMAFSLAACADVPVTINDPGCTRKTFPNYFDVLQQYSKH
Method: The reaction was quenched by the addition of 50 μl of 50 μl of 90% ethanol/0.1M acetic acid, pH 4.5. 70 μl of the reaction mixture was loaded on a SynchroPak AX100 HPLC column (0.4×25 cm) and the column was eluted with 0.5M potassium phosphate, pH 5.5 at 1 ml/min. The radioactivity of the eluent was monitored using a Radiomatic Flo-One Beta Instrument. […] The protein content of the extract was determined by the method of Bradford (Biorad Labs, Calif.). The specific activity of the extract is expressed as nanomoles of EPSP synthase formed/min/mg protein.
Reactions were quenched with 100 mM Na Acetate in ethanol, pH 4.5, centrifuged and analyzed for product EPSP formation by HPLC with flow radioactivity detection. HPLC conditions were 0.35 MKPi, pH 6.5, on a Synchropak AX100 column at 1.0 ml/min.

[8] = tested on: variant soybean EPSPS (gly 104 to ala, gly 147 to asp) from pMON9953; test: Glyphosate tolerance of EPSP synthase extracted from bacteria; assay type: biochemical, Glycine max; settings: enzyme extracted from E. coli SR481 with pMON9953
Source text: An E. coli expression vector for wild type soybean EPSPS was constructed by engineering an NcoI site at the predicted start of the mature soybean coding sequence by the method of Kunkel (1985). This sequence was then inserted into pMON9563, replacing the coding sequence for mature petunia EPSPS resulting in pMON9904.

SMILES: O=C(O)CNCP(=O)(O)O [glyphosate, N-phosphonomethylglycine]
- Visual Appearance [1]: completely dead; also recorded: killed
- Visual Appearance [2]: growing well; also recorded: healthy and viable
- time of growth to saturation [3]: ≤ 11 h
- MIC (E. coli strain JM101): 2000 µM (≈ 338 µg/mL)
- inhibition of EPSP synthase activity ([4]; 1 mM glyphosate): only slight inhibition
- inhibition of EPSP synthase activity ([4]; 100 mM glyphosate): greater inhibition, but still showing detectable activity
- EPSP synthase activity in the presence of glyphosate [5]: no activity was detected
- Relative Effect of Glyphosate ([6]; 0.4 pounds/Acre, day 7): 6.0
- Relative Effect of Glyphosate ([6]; 0.4 pounds/Acre, day 14): 7.0
- Relative Effect of Glyphosate ([6]; 0.4 pounds/Acre, day 28): 9.0
- Relative Effect of Glyphosate ([6]; 2.0 pounds/Acre, day 7): 5.0
- Relative Effect of Glyphosate ([6]; 2.0 pounds/Acre, day 14): 1.8
- Relative Effect of Glyphosate ([6]; 2.0 pounds/Acre, day 28): 0.8
- Relative Effect of Glyphosate ([6]; 3.6 pounds/Acre, day 7): 5.0
- Relative Effect of Glyphosate ([6]; 3.6 pounds/Acre, day 14): 1.7
- Relative Effect of Glyphosate ([6]; 3.6 pounds/Acre, day 28): 0.8
- Ki [7]: 400 nM
- glyphosate tolerance of extracted EPSP synthase [8]: glyphosate tolerant
